Results as given in ChEMBL document CHEMBL1201862, “PubChem BioAssay data set” (2004).
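Dose response: 5 concentrations. Exposure: 48 h. Format: 96-well plates. Endpoint: linear interpolation; highest concentration if not reached. Here, GI50 denotes the concentration required for 50% inhibition of growth.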 Active and inactive are the calls of the source. Cut-off read from the data, not from the text of the source: active = GI50 up to about 1.1 µM and inactive = higher.

How the values were obtained:
Test in all cases: growth of human tumour cells (NCI), 48 h
[1] = test system: MDA-MB-435
[2] = test system: RXF 631
[3] = test system: SR
[4] = test system: A549
[5] = test system: U-251
[6] = test system: UACC-257
[7] = test system: NCI/ADR-RES
[8] = test system: SK-OV-3
[9] = test system: SN12C
[10] = test system: M14
[11] = test system: OVCAR-5
[12] = test system: DMS-114
[13] = test system: A498
[14] = test system: RXF 393
[15] = test system: COLO 205
[16] = test system: K562
[17] = test system: OVCAR-3
[18] = test system: CCRF-CEM
[19] = test system: NCI-H460
[20] = test system: BT-549
[21] = test system: LXFL 529
[22] = test system: Hs-578T
[23] = test system: DU-145
[24] = test system: HCT-15
[25] = test system: SK-MEL-28
[26] = test system: SF-539
[27] = test system: LOX IMVI
[28] = test system: HT-29
[29] = test system: NCI-H226
[30] = test system: OVCAR-4
[31] = test system: TK-10
[32] = test system: PC-3
[33] = test system: MDA-MB-231
[34] = test system: ACHN
[35] = test system: EKVX
[36] = test system: SK-MEL-5
[37] = test system: HOP-18
[38] = test system: SNB-78
[39] = test system: M19-MEL
[40] = test system: SNB-19
[41] = test system: 786-0
[42] = test system: DLD-1
[43] = test system: KM-20L2
[44] = test system: HOP-62
[45] = test system: CAKI-1
[46] = test system: SW-620
[47] = test system: DMS-273
[48] = test system: UACC-62
[49] = test system: HCT-116
[50] = test system: SNB-75
[51] = test system: NCI-H522
[52] = test system: Malme-3M
[53] = test system: MDA-N
[54] = test system: HL-60
[55] = test system: HCC 2998
[56] = test system: MOLT-4
[57] = test system: HOP-92
[58] = test system: RPMI-8226
[59] = test system: NCI-H23
[60] = test system: XF498
[61] = test system: SF-295
[62] = test system: MCF7
[63] = test system: UO-31
[64] = test system: OVCAR-8

COc1ccc(/C=C\c2cc(OC)c(OC)c(OC)c2)cc1OC(=O)NCCN(C)C
GI50 [1]: < 0.1 nM (active)
GI50 [2]: 0.196 nM (active)
GI50 [3]: 0.154 nM (active)
GI50 [4]: 1.87 nM (active)
GI50 [5]: 0.125 nM (active)
GI50 [6]: 8.39 nM (active)
GI50 [7]: < 0.1 nM (active)
GI50 [8]: 3.39 nM (active)
GI50 [9]: 0.244 nM (active)
GI50 [10]: 0.156 nM (active)
GI50 [11]: 7.64 nM (active)
GI50 [12]: < 0.1 nM (active)
GI50 [13]: 0.269 nM (active)
GI50 [14]: < 0.1 nM (active)
GI50 [15]: 215 nM (active)
GI50 [16]: < 0.1 nM (active)
GI50 [17]: 0.107 nM (active)
GI50 [18]: 0.133 nM (active)
GI50 [19]: 0.125 nM (active)
GI50 [20]: 830 nM (active)
GI50 [21]: < 0.1 nM (active)
GI50 [22]: 0.137 nM (active)
GI50 [23]: 0.307 nM (active)
GI50 [24]: 0.132 nM
GI50 [25]: 11800 nM (inactive)
GI50 [26]: 0.133 nM (active)
GI50 [27]: 0.147 nM (active)
GI50 [28]: 526 nM (active)
GI50 [29]: 6.4 nM (active)
GI50 [30]: 1.44 nM (active)
GI50 [31]: 297 nM (active)
GI50 [32]: 0.152 nM (active)
GI50 [33]: 10 nM (active)
GI50 [34]: 0.659 nM (active)
GI50 [35]: < 24.7 nM (active)
GI50 [36]: < 0.1 nM (active)
GI50 [37]: 16800 nM (inactive)
GI50 [38]: < 0.1 nM (active)
GI50 [39]: < 0.1 nM (active)
GI50 [40]: 0.178 nM (active)
GI50 [41]: 1.61 nM (active)
GI50 [42]: < 0.1 nM (active)
GI50 [43]: 136 nM (active)
GI50 [44]: 0.151 nM (active)
GI50 [45]: 38.6 nM (active)
GI50 [46]: < 0.1 nM (active)
GI50 [47]: < 0.1 nM (active)
GI50 [48]: < 0.1 nM (active)
GI50 [49]: < 0.1 nM (active)
GI50 [50]: 0.215 nM (active)
GI50 [51]: 0.119 nM (active)
GI50 [52]: 2.84 nM (active)
GI50 [53]: < 0.1 nM (active)
GI50 [54]: < 0.1 nM (active)
GI50 [55]: 63.1 nM (active)
GI50 [56]: 0.145 nM (active)
GI50 [57]: < 0.1 nM (active)
GI50 [58]: 0.14 nM (active)
GI50 [59]: 0.121 nM (active)
GI50 [60]: < 0.1 nM (active)
GI50 [61]: 0.119 nM (active)
GI50 [62]: 3.34 nM (active)
GI50 [63]: 4.11 nM (active)
GI50 [64]: 0.143 nM (active)
